Assay results taken from publication PMC6753678, “Fueling Open Innovation for Malaria Transmission-Blocking Drugs: Hundreds of Molecules Targeting Early Parasite Mosquito Stages” (Frontiers in Microbiology, 2019).
Like-named read-outs stand apart in the source and are kept apart here.

Legend:
HepG2 cells [1] = experiment: HepG2 cytotoxicity assay
Summary of the method: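 Cells are plated at 2,500 per well on compound-treated plates in MEM containing 10% fetal bovine serum and 1% NEAA, then incubated 48 h at 37°C.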

HepG2 cells [2] = details: cited from earlier work
[3] = system: P. falciparum female gametocytes; experiment: P. falciparum female gametogenesis assay (Pf FGAA); details: 1: YES; 0: NO
[4] = system: P. falciparum female gametocytes; parameters: method as in Miguel-Blanco et al 2017; details: TCAMS screen comparison; ref Miguel-Blanco et al 2017; read-out: Pf FGAA IC50; cited from earlier work
[5] = system: P. falciparum late stage (stages IV-V) gametocytes; parameters: method as in Almela et al 2016; details: ref Almela et al 2016, read-out: Pf GCT ATP IC50, cited from earlier work
[6] = system: P. falciparum late stage (stages IV-V) gametocytes; experiment: P. falciparum late stage gametocyte ATP depletion assay (Pf GC-ATP); details: 1: YES; 0: NO
[7] = system: 3D7-strain P. falciparum asexual parasites; experiment: P. falciparum asexual growth inhibition assay (Pf GIA); format: cell-based, Plasmodium falciparum; details: dose response confirmation; read-out: Pf asexual growth inhibition assays IC50
Summary of the method: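 Steps: seed parasites (0.25% parasitemia, 2% hematocrit) onto compound dilutions; incubate 72 h at 37°C, 5% O2/5% CO2; freeze at −70°C and thaw; add LDH reaction mix, read A650 after 10 min. Percent growth inhibition derived from chloroquine and DMSO controls, averaged over three biological replicates.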

[8] = system: P. berghei ookinete development
[9] = HepG2 cytotoxicity unified across the three screens
[10] = value reported with the Pf GCT ATP screen, ref Almela et al 2016
[11] = value reported with the Pf FGAA screen, ref Miguel-Blanco et al 2017

SMILES: CNC(=S)NN=C(C)c1ccccn1 [TCMDC-123475]
- Unified cytotox (HepG2 cells [1]; [9]): 25.00 µM
- HepG2 cytoxicity (HepG2 cells [2]; [10]): >25 µM
- Is compound selective in assay? Pf FGAA active? [3]: 1 (1: YES)
- IC50 [4]: 14 nM
- IC50 ([5]; TCAMS screen comparison): 1170 nM
- Is compound selective in assay? Pf GC-ATP active? [6]: 1 (1: YES)

SMILES: COc1ccc(C[C@H](N)C(=O)N[C@H]2[C@@H](O)[C@H](n3cnc4c(N(C)C)ncnc43)O[C@@H]2CO)cc1 [TCMDC-123493]
- Unified cytotox (HepG2 cells [1]; [9]): 2.37 µM
- HepG2 cytoxicity (HepG2 cells [2]; [11]): 1.80 µM
- HepG2 cytoxicity (HepG2 cells [2]; [10]): 2.95 µM
- Is compound selective in assay? Pf FGAA active? [3]: 0 (0: NO)
- IC50 [4]: 290 nM
- IC50 ([5]; TCAMS screen comparison): 560 nM
- Is compound selective in assay? Pf GC-ATP active? [6]: 0 (0: NO)

SMILES: CCN(CC)CCCn1c(N)c(-c2nc3ccccc3[nH]2)c2nc(C#N)c(C#N)nc21 [TCMDC-123680]
- Unified cytotox (HepG2 cells [1]; [9]): 6.48 µM
- HepG2 cytoxicity (HepG2 cells [2]; [11]): 4.27 µM
- HepG2 cytoxicity (HepG2 cells [2]; [10]): 8.7 µM
- Is compound selective in assay? Pf FGAA active? [3]: 0 (0: NO)
- IC50 [4]: 740 nM
- IC50 ([5]; TCAMS screen comparison): 140 nM
- Is compound selective in assay? Pf GC-ATP active? [6]: 1 (1: YES)

SMILES: COc1cc2nc(N3CCN(c4nc(N)c5cc(OC)c(OC)cc5n4)CC3)nc(N)c2cc1OC [TCMDC-123865]
- Unified cytotox (HepG2 cells [1]; [9]): 52.49 µM
- HepG2 cytoxicity (HepG2 cells [2]; [11]): 52.49 µM
- HepG2 cytoxicity (HepG2 cells [2]; [10]): >25 µM
- Is compound selective in assay? Pf FGAA active? [3]: 1 (1: YES)
- IC50 [4]: 580 nM
- IC50 ([5]; TCAMS screen comparison): 260 nM
- Is compound selective in assay? Pf GC-ATP active? [6]: 1 (1: YES)

SMILES: [O-][s+]1c(Cl)c(-c2ccc(Cl)cc2)c2ccc(Cl)cc21 (centres unmarked) [TCMDC-124011]
- Unified cytotox (HepG2 cells [1]; [9]): 12.08 µM
- HepG2 cytoxicity (HepG2 cells [2]; [11]): 11.35 µM
- HepG2 cytoxicity (HepG2 cells [2]; [10]): 12.8 µM
- Is compound selective in assay? Pf FGAA active? [3]: 1 (1: YES)
- IC50 [4]: 36.6 nM
- IC50 ([5]; TCAMS screen comparison): 20 nM
- Is compound selective in assay? Pf GC-ATP active? [6]: 1 (1: YES)

SMILES: C=CCN(C(=O)c1ccc(Cl)c([N+](=O)[O-])c1)c1nc(-c2ccccc2)cs1 [TCMDC-124436]
- Unified cytotox (HepG2 cells [1]; [9]): 100.00 µM
- HepG2 cytoxicity (HepG2 cells [2]; [11]): >100 µM
- HepG2 cytoxicity (HepG2 cells [2]; [10]): >25 µM
- Is compound selective in assay? Pf FGAA active? [3]: 1 (1: YES)
- IC50 [4]: 130 nM
- IC50 ([5]; TCAMS screen comparison): 110 nM
- Is compound selective in assay? Pf GC-ATP active? [6]: 1 (1: YES)

SMILES: Cc1sc2ncnc(Sc3nnc(N)s3)c2c1C [TCMDC-124542]
- Unified cytotox (HepG2 cells [1]; [9]): 36.31 µM
- HepG2 cytoxicity (HepG2 cells [2]; [11]): 36.31 µM
- HepG2 cytoxicity (HepG2 cells [2]; [10]): >25 µM
- Is compound selective in assay? Pf FGAA active? [3]: 1 (1: YES)
- IC50 [4]: 770 nM
- IC50 ([5]; TCAMS screen comparison): 300 nM
- Is compound selective in assay? Pf GC-ATP active? [6]: 1 (1: YES)

SMILES: COc1ccc(OC)c(-c2cccc(-c3cccc(NC(=O)c4ccc([N+](=O)[O-])o4)c3)n2)c1 [TCMDC-124799]
- Unified cytotox (HepG2 cells [1]; [9]): 4.89 µM
- HepG2 cytoxicity (HepG2 cells [2]; [11]): 3.63 µM
- HepG2 cytoxicity (HepG2 cells [2]; [10]): 6.15 µM
- Is compound selective in assay? Pf FGAA active? [3]: 0 (0: NO)
- IC50 [4]: 960 nM
- IC50 ([5]; TCAMS screen comparison): 780 nM
- Is compound selective in assay? Pf GC-ATP active? [6]: 0 (0: NO)

SMILES: O=C(c1ccc([N+](=O)[O-])o1)N1CCC(Cc2ccc(C(F)(F)F)cc2)CC1 [TCMDC-124805]
- Unified cytotox (HepG2 cells [1]; [9]): 20.58 µM
- HepG2 cytoxicity (HepG2 cells [2]; [11]): 27.05 µM
- HepG2 cytoxicity (HepG2 cells [2]; [10]): 14.11 µM
- Is compound selective in assay? Pf FGAA active? [3]: 1 (1: YES)
- IC50 [4]: 160 nM
- IC50 ([5]; TCAMS screen comparison): 260 nM
- Is compound selective in assay? Pf GC-ATP active? [6]: 1 (1: YES)

SMILES: CCOc1ccc2nc3cc(NC(=O)c4ccco4)ccc3c(N)c2c1 [TCMDC-125004]
- Unified cytotox (HepG2 cells [1]; [9]): 17.72 µM
- HepG2 cytoxicity (HepG2 cells [2]; [11]): 25.15 µM
- HepG2 cytoxicity (HepG2 cells [2]; [10]): 10.3 µM
- Is compound selective in assay? Pf FGAA active? [3]: 0 (0: NO)
- IC50 [4]: 4550 nM
- IC50 ([5]; TCAMS screen comparison): 190 nM
- Is compound selective in assay? Pf GC-ATP active? [6]: 1 (1: YES)

SMILES: Cc1ccccc1OCC(O)CNC1CCC(NCC(O)COc2ccccc2C)CC1 (centres unmarked) [TCMDC-125142]
- Unified cytotox (HepG2 cells [1]; [9]): 3.93 µM
- HepG2 cytoxicity (HepG2 cells [2]; [11]): 4.07 µM
- HepG2 cytoxicity (HepG2 cells [2]; [10]): 3.78 µM
- Is compound selective in assay? Pf FGAA active? [3]: 0 (0: NO)
- IC50 [4]: 1110 nM
- IC50 ([5]; TCAMS screen comparison): 140 nM
- Is compound selective in assay? Pf GC-ATP active? [6]: 1 (1: YES)

SMILES: Cc1c(Cl)cccc1N=C(S)NN=Cc1ccccn1 [TCMDC-125487]
- Unified cytotox (HepG2 cells [1]; [9]): 100.00 µM
- HepG2 cytoxicity (HepG2 cells [2]; [11]): >100 µM
- HepG2 cytoxicity (HepG2 cells [2]; [10]): >25 µM
- Is compound selective in assay? Pf FGAA active? [3]: 1 (1: YES)
- IC50 [4]: 28 nM
- IC50 ([5]; TCAMS screen comparison): 270 nM
- Is compound selective in assay? Pf GC-ATP active? [6]: 1 (1: YES)

SMILES: Fc1ccc(NC(S)=NN=Cc2ccccn2)cc1 [TCMDC-125521]
- Unified cytotox (HepG2 cells [1]; [9]): 100.00 µM
- HepG2 cytoxicity (HepG2 cells [2]; [11]): >100 µM
- HepG2 cytoxicity (HepG2 cells [2]; [10]): 23.35 µM
- Is compound selective in assay? Pf FGAA active? [3]: 1 (1: YES)
- IC50 [4]: 27.1 nM
- IC50 ([5]; TCAMS screen comparison): 120 nM
- Is compound selective in assay? Pf GC-ATP active? [6]: 1 (1: YES)

SMILES: SC(=Nc1ccc(Cl)c(Cl)c1)NN=Cc1ccccn1 [TCMDC-125522]
- Unified cytotox (HepG2 cells [1]; [9]): 6.28 µM
- HepG2 cytoxicity (HepG2 cells [2]; [11]): 3.47 µM
- HepG2 cytoxicity (HepG2 cells [2]; [10]): 9.1 µM
- Is compound selective in assay? Pf FGAA active? [3]: 1 (1: YES)
- IC50 [4]: 80 nM
- IC50 ([5]; TCAMS screen comparison): 70 nM
- Is compound selective in assay? Pf GC-ATP active? [6]: 1 (1: YES)

SMILES: c1ccc2sc(Sc3ncnc4sccc34)nc2c1 [TCMDC-125539]
- Unified cytotox (HepG2 cells [1]; [9]): 100.00 µM
- HepG2 cytoxicity (HepG2 cells [2]; [11]): >100 µM
- HepG2 cytoxicity (HepG2 cells [2]; [10]): >25 µM
- Is compound selective in assay? Pf FGAA active? [3]: 1 (1: YES)
- IC50 [4]: 140 nM
- IC50 ([5]; TCAMS screen comparison): 500 nM
- Is compound selective in assay? Pf GC-ATP active? [6]: 1 (1: YES)

SMILES: O=c1c(Br)ccccc1Br [TCMDC-142246]
- HepG2 cytoxicity (Pb ODA, this manuscript) (HepG2 cells [1]; HepG2, this manuscript): 14.79 µM
- Unified cytotox (HepG2 cells [1]; HepG2 values of the three screens unified): 13.70 µM
- IC50 (HepG2 cells [1]; read-out: HepG2 cytotoxicity assay IC50, dose response confirmation): 14800 nM
- IC50 [7]: 2070 nM
- HepG2 cytoxicity (Pf GCT ATP screen) (HepG2 cells [2]; HepG2, ref Almela et al 2016): 12.6 µM
- IC50 [5]: 210 nM
- Is compound selective in assay? Pb ODA active? ([8]; 1: YES, 0: NO): 1 (1: YES)
- % inhibition, Replicate A ([8]; primary screen at 1 μM, replicate A): 52.58%
- % inhibition, Replicate B ([8]; primary screen at 1 μM, replicate B): 94.32%
- IC50 ([8]; read-out: Pb ODA IC50, this manuscript): 930 nM
- IC50 ([8]; read-out: Pb Ookinete development assay IC50, dose response confirmation): 933 nM
- Is compound selective in assay? Pf GC-ATP active? [6]: 1 (1: YES)
